US20040072903A1, “Carboxyalkylether-acat inhibitors combinations” (priority 2002, published 2004)

Assays:
Chow-Fed Rat = experiment: Effects of Treatment on Lipid and Lipoprotein Parameters in the Chow-Fed Rat; type: in vivo; parameters: TG (Triglyceride) / Cholesterol (Total cholesterol) / VLDL (Very low-density cholesterol) / LDL (Low-density cholesterol) / HDL (High-density cholesterol): unit not given here
man = conditions: in man, Helsinki Heart Study; cited from earlier work

Row | Structure (SMILES) | Cholesterol (Total cholesterol) (Chow-Fed Rat; 10 mg/kg) | HDL (High-density cholesterol) (Chow-Fed Rat; 10 mg/kg) | HDL/VLDL + LDL (HDL divided by the sum of VLDL and LDL) (Chow-Fed Rat; 10 mg/kg) | LDL (Low-density cholesterol) (Chow-Fed Rat; 10 mg/kg) | TG (Triglyceride) (Chow-Fed Rat; 10 mg/kg) | VLDL (Very low-density cholesterol) (Chow-Fed Rat; 10 mg/kg) | Cholesterol (Total cholesterol) (Chow-Fed Rat; 30 mg/kg) | HDL (High-density cholesterol) (Chow-Fed Rat; 30 mg/kg) | HDL/VLDL + LDL (HDL divided by the sum of VLDL and LDL) (Chow-Fed Rat; 30 mg/kg) | LDL (Low-density cholesterol) (Chow-Fed Rat; 30 mg/kg) | TG (Triglyceride) (Chow-Fed Rat; 30 mg/kg) | VLDL (Very low-density cholesterol) (Chow-Fed Rat; 30 mg/kg) | other results
1 | CC(C)(CCCCOCCCCC(C)(C)C(=O)O)C(=O)O [CI-1027] | 89 ± 8.5 | 76 ± 7.1 | 6.8 ± 0.7 | 9.1 ± 1.1 | 60 ± 8.8 | 2.8 ± 0.8 | 119 ± 21 | 100 ± 14.8 | 9.4 ± 2.7 | 17.6 ± 6.1 | 27 ± 2.0 | 0.7 ± 0.2 | Cholesterol (Total cholesterol) (Chow-Fed Rat; 3 mg/kg): 40 ± 1.4; HDL (High-density cholesterol) (Chow-Fed Rat; 3 mg/kg): 28 ± 1.0; HDL/VLDL + LDL (HDL divided by the sum of VLDL and LDL) (Chow-Fed Rat; 3 mg/kg): 2.4 ± 0.1; LDL (Low-density cholesterol) (Chow-Fed Rat; 3 mg/kg): 9.0 ± 0.5; TG (Triglyceride) (Chow-Fed Rat; 3 mg/kg): 70 ± 2.8; VLDL (Very low-density cholesterol) (Chow-Fed Rat; 3 mg/kg): 2.7 ± 0.3
2 | Cc1ccc(C)c(OCCCC(C)(C)C(=O)O)c1 [gemfibrozil] | – | – | – | – | – | – | – | – | – | – | – | – | HDL-C (man): increased; LDL-C (man): decreased; incidence of coronary artery disease (man): reduced
3 | CC(C)c1cc(C(C)C)c(CC(=O)NS(=O)(=O)Oc2c(C(C)C)cccc2C(C)C)c(C(C)C)c1 [Avisimbe] | 36 ± 2.3 | 19.5 ± 1.7 | 1.2 ± 0.1 | 12.0 ± 1.1 | 85 ± 16.8 | 3.9 ± 0.7 | 37 ± 2.9 | 22.2 ± 1.8 | 1.6 ± 0.1 | 12.0 ± 0.8 | 65 ± 12.9 | 2.1 ± 0.6 | –
